Assay results reported in patent US12319672B2, “Alpha-D-galactopyranoside derivatives” (Idorsia Pharmaceuticals Ltd, priority 2019, dated 2025).

How the values were obtained:
human Gal-3 (hGal-3) = human Gal-3 (hGal-3) (Homo sapiens (Human), UniProt P17931); assay: Competitive binding assay: binding of biotinylated hGal-3 to microplate-adsorbed asialofetuin (ASF); settings: Activity on hGal-3; mean values of several measurements
Method in brief: (§1)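 Compounds diluted in DMSO competed with biotinylated hGal-3 or hGal-1 (300-1000 ng/mL) for binding to plate-adsorbed asialofetuin for 3 h at 4° C. Bound galectin was detected with streptavidin-peroxidase (80 ng/mL, 1 h, 4° C) and ABTS substrate; IC50 reported as mean of several measurements.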

human Gal-1 (hGal-1) = assay: Competitive binding assay: binding of biotinylated hGal-1 to microplate-adsorbed asialofetuin (ASF); settings: Activities on hGal-1; mean values of several measurements
Method in brief: as §1

human Gal-3 (hGal-3), sequence (P17931 whole entry): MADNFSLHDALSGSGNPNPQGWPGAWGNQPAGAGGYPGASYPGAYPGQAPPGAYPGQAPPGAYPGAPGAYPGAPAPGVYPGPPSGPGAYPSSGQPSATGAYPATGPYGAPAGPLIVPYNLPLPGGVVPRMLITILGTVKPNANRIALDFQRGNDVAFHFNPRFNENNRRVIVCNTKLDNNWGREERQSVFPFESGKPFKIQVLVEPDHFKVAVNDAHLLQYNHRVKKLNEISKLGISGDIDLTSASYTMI
human Gal-1 (hGal-1), sequence (P09382 2-135 limits assumed): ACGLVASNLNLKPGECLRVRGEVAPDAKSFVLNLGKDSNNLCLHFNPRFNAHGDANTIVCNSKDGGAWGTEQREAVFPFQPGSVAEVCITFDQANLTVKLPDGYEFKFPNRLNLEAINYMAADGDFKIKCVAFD

Row | IC50 (human Gal-3 (hGal-3)) | IC50 (human Gal-1 (hGal-1)) | SMILES
1 | 1.84 µM | 0.45 µM | CC(C)(C)OC(=O)N1CCC(C2=NOC(C[C@H]3O[C@H](CO)[C@H](O)[C@H](n4cc(-c5ccc(F)cn5)nn4)[C@H]3O)C2)CC1 (some centres unmarked) [Ex 1.104]
2 | 0.18 µM | 1.69 µM | COc1cc(-c2cn([C@H]3[C@@H](O)[C@@H](CO)O[C@H](CC4CC(C5CCN(C(=O)OC(C)(C)C)CC5)=NO4)[C@@H]3O)nn2)cc(F)c1F (some centres unmarked) [Ex 1.108]
3 | 1.6 µM | 0.21 µM | CC(C)(C)OC(=O)N1CCC(C2=NOC(C[C@H]3O[C@H](CO)[C@H](O)[C@H](n4cc(-c5nc6ccccc6s5)nn4)[C@H]3O)C2)CC1 (some centres unmarked) [Ex 1.109]
4 | 0.25 µM | 2.24 µM | COc1cc(-c2cn([C@H]3[C@@H](O)[C@@H](CO)O[C@H](CC4CC(C5CCN(C(=O)OC(C)(C)C)CC5)=NO4)[C@@H]3O)nn2)ccc1Cl (some centres unmarked) [Ex 1.110]
5 | 1.06 µM | 0.64 µM | COc1ccc(-c2cn([C@H]3[C@@H](O)[C@@H](CO)O[C@H](CC4CC(C5CCN(C(=O)OC(C)(C)C)CC5)=NO4)[C@@H]3O)nn2)cc1 (some centres unmarked) [Ex 1.113]
6 | 0.075 µM | 1.36 µM | CO[C@@H]1[C@@H](n2cc(-c3cc(F)c(F)c(F)c3)nn2)[C@@H](O)[C@@H](CO)O[C@@H]1Cc1cc(C2CCC(=O)NC2)no1 (some centres unmarked) [Ex 1.114]
7 | 0.17 µM | 1.75 µM | CO[C@@H]1[C@@H](n2cc(-c3ccc(Cl)c(F)c3)nn2)[C@@H](O)[C@@H](CO)O[C@@H]1CC1CC(C2CCN(C(=O)OC(C)(C)C)CC2)=NO1 (some centres unmarked) [Ex 1.116]
8 | 0.26 µM | 4.17 µM | CO[C@@H]1[C@@H](n2cc(-c3cc(F)c(F)c(F)c3)nn2)[C@@H](O)[C@@H](CO)O[C@@H]1Cc1cc(-c2ccn(C)c(=O)c2)on1 [Ex 1.119]
9 | 0.29 µM | 10.6 µM | CO[C@@H]1[C@@H](n2cc(-c3cc(F)c(F)c(F)c3)nn2)[C@@H](O)[C@@H](CO)O[C@@H]1Cc1cc(C2CCCCC2)no1 [Ex 1.120]
10 | 0.14 µM | 0.14 µM | CO[C@@H]1[C@@H](n2cc(-c3cccc(F)c3)nn2)[C@@H](O)[C@@H](CO)O[C@@H]1Cc1cc(C2CCN(C(=O)OC(C)(C)C)CC2)no1 [Ex 1.123]
11 | 0.031 µM | 0.8 µM | CO[C@@H]1[C@@H](n2cc(-c3ccc(Cl)c(F)c3)nn2)[C@@H](O)[C@@H](CO)O[C@@H]1Cc1cc(C2CCN(C(=O)OC(C)(C)C)CC2)no1 [Ex 1.124]
12 | 0.14 µM | 1 µM | CO[C@@H]1[C@@H](n2cc(-c3ccc(Br)c(F)c3)nn2)[C@@H](O)[C@@H](CO)O[C@@H]1Cc1cc(C2CCN(C(=O)OC(C)(C)C)CC2)no1 [Ex 1.125]
13 | 0.26 µM | 18.1 µM | CO[C@@H]1[C@@H](n2cc(-c3cc(F)c(F)c(F)c3)nn2)[C@@H](O)[C@@H](CO)O[C@@H]1Cc1cc(C23CCC(NC(=O)OC(C)(C)C)(CC2)CC3)on1 [Ex 1.130]
14 | 0.069 µM | 0.76 µM | CO[C@@H]1[C@@H](n2cc(-c3cc(F)c(F)c(F)c3)nn2)[C@@H](O)[C@@H](CO)O[C@@H]1Cc1cc(C2(O)CCN(C(=O)OC(C)(C)C)CC2)on1 [Ex 1.132]
15 | 0.23 µM | 10.7 µM | CO[C@@H]1[C@@H](n2cc(-c3cc(F)c(F)c(F)c3)nn2)[C@@H](O)[C@@H](CO)O[C@@H]1Cc1cc(C2(O)CCNCC2)on1 [Ex 1.133]
16 | 0.084 µM | 10.8 µM | CO[C@@H]1[C@@H](n2cc(-c3cc(F)c(F)c(F)c3)nn2)[C@@H](O)[C@@H](CO)O[C@@H]1Cc1cc(C2CCC(NC(=O)OC(C)(C)C)CC2)no1 (some centres unmarked) [Ex 1.134]
17 | 0.042 µM | 1.13 µM | CN=[S@](=O)(C(C)C)N1CCC(c2cc(C[C@H]3O[C@H](CO)[C@H](O)[C@H](n4cc(-c5cc(F)c(F)c(F)c5)nn4)[C@H]3OC)no2)CC1 [Ex 1.139]
18 | 0.049 µM | 0.69 µM | CO[C@@H]1[C@@H](n2cc(-c3ccc(Cl)c(F)c3F)nn2)[C@@H](O)[C@@H](CO)O[C@@H]1CC1CC(C2CCN(C(=O)OC(C)(C)C)CC2)=NO1 (some centres unmarked) [Ex 1.140]
19 | 0.097 µM | 0.79 µM | CO[C@@H]1[C@@H](n2cc(-c3ccc(Br)c(F)c3F)nn2)[C@@H](O)[C@@H](CO)O[C@@H]1CC1CC(C2CCN(C(=O)OC(C)(C)C)CC2)=NO1 (some centres unmarked) [Ex 1.141]

Continued, compound first:

Row | SMILES | IC50 (human Gal-3 (hGal-3)) | IC50 (human Gal-1 (hGal-1))
20 | CC(C)(C)OC(=O)N1CCC(C2=NOC(C[C@H]3O[C@H](CO)[C@H](O)[C@H](n4cc(-c5cc(Cl)ccc5Cl)nn4)[C@H]3O)C2)CC1 (some centres unmarked) [Ex 1.105] | 1.68 µM | 2.34 µM
21 | COc1cc(F)c(F)cc1-c1cn([C@H]2[C@@H](O)[C@@H](CO)O[C@H](CC3CC(C4CCN(C(=O)OC(C)(C)C)CC4)=NO3)[C@@H]2O)nn1 (some centres unmarked) [Ex 1.106] | 0.49 µM | 1.53 µM
22 | CC(C)(C)OC(=O)N1CCC(C2=NOC(C[C@H]3O[C@H](CO)[C@H](O)[C@H](n4cc(-c5ccc(Cl)c(Cl)c5)nn4)[C@H]3O)C2)CC1 (some centres unmarked) [Ex 1.107] | 0.11 µM | 0.4 µM
23 | COc1cc(OC)c(-c2cn([C@H]3[C@@H](O)[C@@H](CO)O[C@H](CC4CC(C5CCN(C(=O)OC(C)(C)C)CC5)=NO4)[C@@H]3O)nn2)cc1F (some centres unmarked) [Ex 1.111] | 1.66 µM | 11.5 µM
24 | Cc1c(F)cccc1-c1cn([C@H]2[C@@H](O)[C@@H](CO)O[C@H](CC3CC(C4CCN(C(=O)OC(C)(C)C)CC4)=NO3)[C@@H]2O)nn1 (some centres unmarked) [Ex 1.112] | 1 µM | 0.77 µM
25 | CO[C@@H]1[C@@H](n2cc(-c3cccc(F)c3)nn2)[C@@H](O)[C@@H](CO)O[C@@H]1CC1CC(C2CCN(C(=O)OC(C)(C)C)CC2)=NO1 (some centres unmarked) [Ex 1.115] | 0.44 µM | 0.94 µM
26 | CO[C@@H]1[C@@H](n2cc(-c3ccc(Br)c(F)c3)nn2)[C@@H](O)[C@@H](CO)O[C@@H]1CC1CC(C2CCN(C(=O)OC(C)(C)C)CC2)=NO1 (some centres unmarked) [Ex 1.117] | 0.33 µM | 1.14 µM
27 | CO[C@@H]1[C@@H](n2cc(-c3cc(F)cc(F)c3)nn2)[C@@H](O)[C@@H](CO)O[C@@H]1CC1CC(C2CCN(C(=O)OC(C)(C)C)CC2)=NO1 (some centres unmarked) [Ex 1.118] | 0.33 µM | 1.47 µM
28 | CO[C@@H]1[C@@H](n2cc(-c3ccc(Cl)c(F)c3)nn2)[C@@H](O)[C@@H](CO)O[C@@H]1Cc1cc(C2CCN(C(=O)OC(C)(C)C)CC2)on1 [Ex 1.121] | 0.082 µM | 1.09 µM
29 | CO[C@@H]1[C@@H](n2cc(-c3cc(F)cc(F)c3)nn2)[C@@H](O)[C@@H](CO)O[C@@H]1Cc1cc(C2CCN(C(=O)OC(C)(C)C)CC2)on1 [Ex 1.122] | 0.14 µM | 0.72 µM
30 | CO[C@@H]1[C@@H](n2cc(-c3cc(F)cc(F)c3)nn2)[C@@H](O)[C@@H](CO)O[C@@H]1Cc1cc(C2CCN(C(=O)OC(C)(C)C)CC2)no1 [Ex 1.126] | 0.081 µM | 0.44 µM
31 | CO[C@@H]1[C@@H](n2cc(-c3cc(F)c(F)c(F)c3)nn2)[C@@H](O)[C@@H](CO)O[C@@H]1Cc1cc(-c2nc(Br)cs2)on1 [Ex 1.127] | 0.3 µM | 9.84 µM
32 | CO[C@@H]1[C@@H](n2cc(-c3cc(F)c(F)c(F)c3)nn2)[C@@H](O)[C@@H](CO)O[C@@H]1CC1=NO[C@@H](C2CCCCC2)C1 [Ex 1.128] | 0.87 µM | 15.4 µM
33 | CO[C@@H]1[C@@H](n2cc(-c3cc(F)c(F)c(F)c3)nn2)[C@@H](O)[C@@H](CO)O[C@@H]1CC1=NO[C@H](C2CCCCC2)C1 [Ex 1.129] | 0.27 µM | 14.7 µM
34 | CO[C@@H]1[C@@H](n2cc(-c3cc(F)c(F)c(F)c3)nn2)[C@@H](O)[C@@H](CO)O[C@@H]1Cc1cc(C23CCC(N)(CC2)CC3)on1 [Ex 1.131] | 0.14 µM | 7.44 µM
35 | CO[C@@H]1[C@@H](n2cc(-c3cc(F)c(C)c(F)c3)nn2)[C@@H](O)[C@@H](CO)O[C@@H]1CC1CC(C2CCN(C(=O)OC(C)(C)C)CC2)=NO1 (some centres unmarked) [Ex 1.135] | 0.1 µM | 9 µM
36 | CO[C@@H]1[C@@H](n2cc(-c3ccc(C)c(F)c3)nn2)[C@@H](O)[C@@H](CO)O[C@@H]1CC1CC(C2CCN(C(=O)OC(C)(C)C)CC2)=NO1 (some centres unmarked) [Ex 1.136] | 0.112 µM | 4.77 µM
37 | CO[C@@H]1[C@@H](n2cc(-c3ccc(C)c(F)c3F)nn2)[C@@H](O)[C@@H](CO)O[C@@H]1CC1CC(C2CCN(C(=O)OC(C)(C)C)CC2)=NO1 (some centres unmarked) [Ex 1.137] | 0.048 µM | 1.88 µM
38 | CN=[S@@](=O)(C(C)C)N1CCC(c2cc(C[C@H]3O[C@H](CO)[C@H](O)[C@H](n4cc(-c5cc(F)c(F)c(F)c5)nn4)[C@H]3OC)no2)CC1 [Ex 1.138] | 0.13 µM | 15.3 µM
39 | CO[C@@H]1[C@@H](n2cc(-c3ccc(Br)c(F)c3F)nn2)[C@@H](O)[C@@H](CO)O[C@@H]1CC1CC(C2CCNCC2)=NO1 (some centres unmarked) [Ex 1.142] | 0.071 µM | 1.32 µM
40 | CO[C@@H]1[C@@H](n2cc(-c3ccc(F)c(F)c3F)nn2)[C@@H](O)[C@@H](CO)O[C@@H]1CC1CC(C2CCN(C(=O)OC(C)(C)C)CC2)=NO1 (some centres unmarked) [Ex 1.143] | 0.1 µM | 0.19 µM
